In patent publication US5292737A, “N,N'-bis(sulfonamido)-2-amino-4-iminonaphthalen-1-ones and N,N'-bis(amido)-2-amino-4-iminonaphthalen-1-ones” (Sphinx Pharmaceuticals Corporation, priority 1992, dated 1994):
Read-outs that look alike come from different tables or passages of the source.

What was measured:
PKC isoenzyme α = biological target: T1, PKC isoenzyme α (Homo sapiens, UniProt P17252); assay: Protein kinase C inhibition assay, PKC isoenzyme α; assay type: biochemical; conditions: read-out: IC50 PKC α
T1 construct: made in house; host or cells: baculovirus-insect cell expression system
Method: (§1) A protein kinase C (PKC) assay is designed to duplicate the in vivo conditions required for protein kinase C function. Therefore, pH, salt and cofactor concentrations are similar to physiologic levels. Either lysine rich histone H1 (H1) or Myelin basic protein (Mbp) are used in the assay as the phosphorylation acceptor-protein because they are readily available and serve as good substrates for protein kinase C. Enzyme was prepared from baculovirus-insect cell expression systems.
(§2) In the screening assay, phosphatidylserine (PS) and DAG were co-sonicated to form unilamellar and multilamellar vesicles. The concentration of lipids in the assay were suboptimal to maximize the detection potential of the assay for inhibitors or activators. Potential effector compounds were added to the assay in dimethylsulfoxide at four concentrations to give final inhibitor concentrations of 1, 10, 50, and 150 μM, respectively.
(§3) The assay was started with the addition of enzyme and stopped after 10 min by the addition of 25% trichloroacetic acid (TCA) and 1.0 mg/ml bovine serum albumin (BSA). The radioactive histone product was retained and washed on glass fiber filters that allow the unreacted P-ATP to pass through. The amount of phosphorylation was determined by measuring radioactivity with a scintillation counter. Controls were included in every assay to measure background activity in the absence of enzyme, activity in the absence of lipids, and the maximum enzyme activity with saturating levels of the activator lipids.
(§4) Results of the protein kinase C assay are shown in Table 4 in columns labeled α, βII, γ, δ, ε, and .zeta. which represent various PKC isoenzymes. Results are show as IC50, which is the concentration of test compound needed to inhibit 50% of the protein kinase C activity in controls.

PKC isoenzyme βII = biological target: T2, PKC isoenzyme βII (Homo sapiens, UniProt P05771); assay: Protein kinase C inhibition assay, PKC isoenzyme βII; assay type: biochemical; conditions: read-out: IC50 PKC βII
T2 construct: made in house; host or cells: baculovirus-insect cell expression system
Method: as §1, §2, §3, §4

PKC isoenzyme γ = biological target: T3, PKC isoenzyme γ (Homo sapiens, UniProt P05129); assay: Protein kinase C inhibition assay, PKC isoenzyme γ; assay type: biochemical; conditions: read-out: IC50 PKC γ
T3 construct: made in house; host or cells: baculovirus-insect cell expression system
Method: as §1, §2, §3, §4

PKC isoenzyme δ = biological target: T4, PKC isoenzyme δ (Homo sapiens, UniProt Q05655); assay: Protein kinase C inhibition assay, PKC isoenzyme δ; assay type: biochemical; conditions: read-out: IC50 PKC δ
T4 construct: made in house; host or cells: baculovirus-insect cell expression system
Method: as §1, §2, §3, §4

PKC isoenzyme ε = biological target: T5, PKC isoenzyme ε (Homo sapiens, UniProt Q02156); assay: Protein kinase C inhibition assay, PKC isoenzyme ε; assay type: biochemical; conditions: read-out: IC50 PKC ε
T5 construct: made in house; host or cells: baculovirus-insect cell expression system
T5 sequence (Q02156 1-737): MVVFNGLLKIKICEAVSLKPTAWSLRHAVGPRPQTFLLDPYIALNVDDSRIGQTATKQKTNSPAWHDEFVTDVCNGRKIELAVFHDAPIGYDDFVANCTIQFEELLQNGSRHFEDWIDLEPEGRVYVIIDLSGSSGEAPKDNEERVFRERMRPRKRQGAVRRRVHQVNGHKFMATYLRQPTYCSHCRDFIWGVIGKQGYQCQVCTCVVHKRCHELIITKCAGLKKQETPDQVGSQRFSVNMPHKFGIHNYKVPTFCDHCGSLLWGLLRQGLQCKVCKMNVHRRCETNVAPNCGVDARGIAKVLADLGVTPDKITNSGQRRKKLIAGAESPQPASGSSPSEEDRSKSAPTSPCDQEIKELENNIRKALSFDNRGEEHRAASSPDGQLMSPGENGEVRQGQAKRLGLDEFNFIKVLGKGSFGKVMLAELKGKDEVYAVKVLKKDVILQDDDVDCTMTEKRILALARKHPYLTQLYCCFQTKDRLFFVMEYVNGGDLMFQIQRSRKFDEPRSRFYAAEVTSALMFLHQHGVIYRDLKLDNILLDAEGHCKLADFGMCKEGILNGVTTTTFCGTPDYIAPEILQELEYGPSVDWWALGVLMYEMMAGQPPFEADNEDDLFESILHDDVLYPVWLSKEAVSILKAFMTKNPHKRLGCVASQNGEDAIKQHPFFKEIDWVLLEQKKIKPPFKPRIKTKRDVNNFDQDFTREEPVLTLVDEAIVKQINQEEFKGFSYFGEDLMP
Method: as §1, §2, §3, §4

PKC isoenzyme ζ = biological target: T6, PKC isoenzyme ζ (Homo sapiens, UniProt Q05513); assay: Protein kinase C inhibition assay, PKC isoenzyme ζ; assay type: biochemical; conditions: read-out: IC50 PKC .zeta.
T6 construct: made in house; host or cells: baculovirus-insect cell expression system
T6 sequence (Q05513 1-592): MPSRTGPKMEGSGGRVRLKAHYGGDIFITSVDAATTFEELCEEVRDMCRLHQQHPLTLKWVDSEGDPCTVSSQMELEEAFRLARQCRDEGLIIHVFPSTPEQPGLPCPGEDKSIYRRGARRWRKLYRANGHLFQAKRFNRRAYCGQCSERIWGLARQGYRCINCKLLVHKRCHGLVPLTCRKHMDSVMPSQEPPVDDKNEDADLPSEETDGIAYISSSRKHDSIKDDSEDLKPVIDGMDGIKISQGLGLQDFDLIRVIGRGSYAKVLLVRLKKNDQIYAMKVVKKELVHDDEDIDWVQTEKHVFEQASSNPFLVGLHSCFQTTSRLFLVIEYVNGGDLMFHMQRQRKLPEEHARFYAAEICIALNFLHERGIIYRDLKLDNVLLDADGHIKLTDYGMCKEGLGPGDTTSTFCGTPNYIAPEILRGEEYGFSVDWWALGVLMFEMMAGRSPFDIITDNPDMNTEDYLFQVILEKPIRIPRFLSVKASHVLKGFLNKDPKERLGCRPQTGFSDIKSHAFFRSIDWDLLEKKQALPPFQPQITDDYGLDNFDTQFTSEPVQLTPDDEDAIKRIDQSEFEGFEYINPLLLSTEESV
Method: as §1, §2, §3, §4

[1] = biological target: cAMP dependent protein kinase (PKA); assay: cAMP Dependent Protein Kinase (PKA) Assay; assay type: biochemical
Method: Compounds found to be inhibitors of protein kinase C were tested for inhibitory activity against cAMP dependent protein kinase (PKA). This enzyme, like protein kinase C, plays an important role in cell-cell communication and is activated by a second messenger, cAMP. Secondary screening against PKA is useful for ascertaining the selectivity of the compounds of the invention.
The catalytic subunit of PKA (Sigma Chemical Company, St. Louis, Mo.) was mixed with buffer before addition of the inhibitor in dimethylsulfoxide (DMSO). Potential inhibitor compounds were added to the assay in dimethylsulfoxide at two concentrations to give final inhibitor concentrations of 30 and 150 μM, respectively. The assay was started by the addition of ^32 P-ATP and the reaction was allowed to proceed for 10 min before stopping with 25% trichloroacetic acid (TCA) and 1.0 mg/ml bovine serum albumin (BSA). Phosphorylated protein was then isolated by filtration and the radioactivity was counted by a beta scintillation counter.

[2] = test system: normal human epidermal keratinocyte (NHEK) cells; assay: Human Keratinocyte Inhibition (3H TdR Assay); assay type: cell-based; conditions: 24 h incubation, 3H-thymidine
Method: Proliferating normal human epidermal keratinocyte (NHEK) cells were obtained in the second passage and grown in keratinocyte growth medium, KGM (Clonetics, Inc.) at 37° C., 5% CO2. The cells were trypsinized (0.25%), centrifuged, counted with a hemocytometer, and seeded at a concentration of 5000 cells in 100 μl well in a 96-well microtiter plate.
After the cells were allowed to attach to the microtiter plate overnight, test agents were titrated to determine the dose response. This was done by adding each test agent dilution in quadruplicate to the plate at 2× final concentration in 100 μl to bring the total volume of each well to 200 μl. Culture media with no test agent added was used as a normal control. Duplicate sets of plates were established.
After twenty-four hours of incubation with test compounds 37° C. and 5% CO2, […] of 0.01 mCi/ml tritiated thymidine (New England Nuclear) was added to each well and allowed to incubate for another 4 hours under the same conditions.
Supernatant was aspirated and discarded and […] of 0.05% trypsin (Gibco) was added to each cell. Cells were checked microscopically to determine detachment from surfaces and then harvested onto glass filters. The filters were then placed in vials to which scintillant was added and counted for one minute each in a scintillation counter.
Determine mean cpm of wells containing test agent (n=4) or KGM control (n=16). Calculate % of control by the formula: [formula]
The IC50, or connection necessary to inhibit 50% of control, of each test agent was determined by plotting % control vs log concentration for each dilution and then linear forecasting the 50% control value onto the X axis on a Quatro Pro computer program. Only regression values with a correlation coefficient greater than 0.9 were considered acceptable.

human neutrophils = assay: Neutrophil Superoxide Anion (O2) Release Assay, PMA-stimulated; assay type: cell-based; conditions: Homo sapiens, Neutrophil, read-out: Neutrophil Superoxide Release IC50
Source text: Phorbol-12,13-myristate acetate (PMA) stimulates O2 production in human neutrophils which in turn reduces cytochrome C. Reducing cytochrome C increases absorbance and the change in optical density (OD) is proportional to the amount of O2 produced by PMA stimulation. Inhibition is expressed as an IC50 value and is the amount of test compound that will inhibit fifty percent of the PMA-stimulated respiratory outburst, i.e. O2^31 production (Lherer et al. (1981) J. Clinical lnvest. 68:1314; Roberts et al. (1982) J. Immunological Methods 49:193).
Human donor blood in 0.38% Sodium Citrate was centrifuged for 10 minutes at 160 ×g at room temperature. Platelet-rich plasma was removed leaving the buffy coat and the red cell-enriched fraction. Saline with 0.38% Sodium Citrate was added to this fraction up to the original blood volume. The enriched blood sample was diluted 1:1 (v:v) with 3% dextran T500 (Pharmacia) in normal saline and placed in a 60 cc syringe, inverted over a beaker and allowed to settle 30 minutes at room temperature.
Leukocyte-enriched plasma was removed from the syringe, placed into 50 ml polypropylene conical centrifuge tubes and underlaid with 15-20 ml Lymphocyte Separation Medium (LSM Organon Technica). The tubes were centrifuged for 40 minutes at 500×g at room temperature. The plasma, buffy coat and LSM were aspirated off the pellets which contained red blood cells and neutrophils.
The pellets were vortexed and 10 ml ice-cold 0.2% NaCl was added to lyse the red blood cells while vortexing again for 10 seconds. Ice-cold 1.6% NaCl was added while vortexing for 10 seconds. The cells were combined from multiple tubes, centrifuged 10 min at 400×g at 4° C. This red cell lysis was repeated and the resulting neutrophil pellet was washed once in Reaction HBSS (GIBCO, HBSS with Ca^++ and Mg^++,.238% HEPES, 0.1% dextrose, 0.1% RIA grade bovine serum albumin, PH 7.2). The cells were resuspended in 1/5 the original blood volume with Reaction HBSS, counted and adjusted to 4.0×10^6 cells/ml at 4° C.
Duplicate samples of neutrophils were tested in 12×75 mm polypropylene tubes containing 0.25 ml of the neutrophil suspension. Cytochrome C mix (0.25 ml, 6.0 mg/ml cytochrome C type IV (Sigma) plus 1200 U/ml bovine liver catalase (Sigma) in Reaction HBSS described above) was added. PMA was added at 2×the final concentration in 0.5 ml of Reaction HBSS. PMA final test concentration were 0.0, 0.3, 9.0, 27.0, and 81.0 ng/ml. The tubes were vortexed and incubated for 10 minutes at 37° C. with shaking. After chilling for 5 minutes at 4° C. and centrifuging for 10 minutes at 4° C., 550×g, 0.5 ml of supernatant was removed from each tube. Normal saline (0.5 ml) was added to each 0.5 ml sample of supernatant and the absorbance of each sample was read at 550 nm on a spectrophotometer (Shimadzu). The PMA concentration which gives nearly maximal stimulation of superoxide release was determined.
The test samples of neutrophils were prepared as in the PMA dose response through addition of cytochrome C mix. Then 0.4 ml of Reaction HBSS as a control or test agent at 2.5×final test concentration was added and the tubes were vortexed and incubated for 30 minutes at 37° C. with shaking. PMA (0.1 ml) was added at a 10× concentration of the final concentration determined above. The samples were incubated for 10 minutes at 37° C. with shaking, chilled for 5 minutes at 4° C., and then centrifuged for 5 minutes at 550×g at 4° C. The supernatant (0.5 ml) was diluted with 0.5 ml normal saline as above and the absorbance was then determined at 550 nm. The percent change was calculated as follows: [formula] D-sphingosine (Sigma) used as reference standard.
Human neutrophils were first isolated according to Lherer et al. ((1981) J. Clinical Invest. 68:1314) and then tested for stimulation of superoxide anion release with phorbol--12,13-myristate acetate (PMA) in a dose-dependent manner. […]

T2 sequence (P05771 1-673 isoform P05771-2): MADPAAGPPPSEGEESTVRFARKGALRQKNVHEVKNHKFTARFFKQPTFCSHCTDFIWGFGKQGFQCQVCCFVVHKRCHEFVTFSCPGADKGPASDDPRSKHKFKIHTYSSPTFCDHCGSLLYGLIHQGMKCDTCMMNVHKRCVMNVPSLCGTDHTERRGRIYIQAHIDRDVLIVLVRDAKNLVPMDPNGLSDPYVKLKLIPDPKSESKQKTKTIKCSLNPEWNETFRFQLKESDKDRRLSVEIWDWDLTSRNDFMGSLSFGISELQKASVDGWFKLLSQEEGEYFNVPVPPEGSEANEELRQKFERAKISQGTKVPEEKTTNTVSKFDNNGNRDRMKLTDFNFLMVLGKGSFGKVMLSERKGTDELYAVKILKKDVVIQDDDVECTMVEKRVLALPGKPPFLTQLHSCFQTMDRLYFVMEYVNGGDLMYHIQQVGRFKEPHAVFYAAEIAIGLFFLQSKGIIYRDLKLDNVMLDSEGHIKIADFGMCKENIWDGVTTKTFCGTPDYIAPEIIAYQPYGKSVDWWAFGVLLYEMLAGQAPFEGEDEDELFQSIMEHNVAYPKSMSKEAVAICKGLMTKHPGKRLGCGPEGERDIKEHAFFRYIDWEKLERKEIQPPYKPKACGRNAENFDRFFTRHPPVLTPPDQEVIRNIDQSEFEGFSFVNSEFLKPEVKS
T4 sequence (Q05655 whole entry): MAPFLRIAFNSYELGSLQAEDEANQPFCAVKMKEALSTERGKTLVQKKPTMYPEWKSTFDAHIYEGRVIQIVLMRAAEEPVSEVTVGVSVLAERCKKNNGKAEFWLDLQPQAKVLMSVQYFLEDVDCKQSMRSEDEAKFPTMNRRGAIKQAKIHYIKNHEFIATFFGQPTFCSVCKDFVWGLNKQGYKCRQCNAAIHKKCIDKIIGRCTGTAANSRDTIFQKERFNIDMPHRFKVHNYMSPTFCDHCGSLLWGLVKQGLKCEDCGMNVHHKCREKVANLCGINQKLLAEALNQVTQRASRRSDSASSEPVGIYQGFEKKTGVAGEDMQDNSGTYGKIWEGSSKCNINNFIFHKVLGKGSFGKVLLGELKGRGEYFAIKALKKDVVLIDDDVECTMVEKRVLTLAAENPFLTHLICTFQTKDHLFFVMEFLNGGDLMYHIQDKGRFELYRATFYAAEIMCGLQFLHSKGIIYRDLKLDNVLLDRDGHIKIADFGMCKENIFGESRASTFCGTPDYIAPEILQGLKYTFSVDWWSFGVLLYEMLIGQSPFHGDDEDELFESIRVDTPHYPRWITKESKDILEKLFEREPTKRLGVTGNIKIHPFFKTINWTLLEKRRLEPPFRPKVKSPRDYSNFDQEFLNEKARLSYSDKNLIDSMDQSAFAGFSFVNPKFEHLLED

N=C(N)NS(=O)(=O)c1ccc(N=C2C=C(Nc3ccc(S(=O)(=O)NC(=N)N)cc3)C(=O)c3ccccc32)cc1 [Compound 3ab]
IC50 (PKC isoenzyme α): 125 µM
IC50 (PKC isoenzyme βII): > 150 µM
IC50 (PKC isoenzyme γ): 76 µM
IC50 (PKC isoenzyme δ): > 150 µM
IC50 (PKC isoenzyme ε): > 150 µM
IC50 (PKC isoenzyme ζ): > 150 µM

Cc1noc(NS(=O)(=O)c2ccc(N=C3C=C(Nc4ccc(S(=O)(=O)Nc5onc(C)c5C)cc4)C(=O)c4ccccc43)cc2)c1C [Compound 6b]
IC50 (PKC isoenzyme α): 35 µM
IC50 (PKC isoenzyme βII): 50 µM
IC50 (PKC isoenzyme γ): 29 µM
IC50 (PKC isoenzyme δ): 39 µM
IC50 (PKC isoenzyme ε): > 150 µM
IC50 ([1]; catalytic subunit of PKA): > 150 µM
effect on PKA activity ([1]; result in words): did not effect on PKA activity
IC50 [2]: 16.7 µM

O=C1C(Nc2ccc(S(=O)(=O)Nc3ncccn3)cc2)=CC(=Nc2ccc(S(=O)(=O)Nc3ncccn3)cc2)c2ccccc21 [Compound 6k]
IC50 (PKC isoenzyme α): 116 µM
IC50 (PKC isoenzyme γ): 16 µM
IC50 (PKC isoenzyme ζ): 35 µM
IC50 (human neutrophils; PMA-stimulated human neutrophils): 6.83 µM

CCCCCCCCCCCCCCCCNS(=O)(=O)c1ccc(N=C2C=C(Nc3ccc(S(=O)(=O)NCCCCCCCCCCCCCCCC)cc3)C(=O)c3ccccc32)cc1 [Compound 6o]
IC50 (PKC isoenzyme α): 100 µM
IC50 (PKC isoenzyme βII): 99 µM
IC50 (PKC isoenzyme γ): 94 µM
IC50 (PKC isoenzyme δ): 102 µM
IC50 (PKC isoenzyme ζ): > 150 µM

CCCCCCCCCCCCC/C=C/[C@@H](O)[C@@H](N)CO [D--sphingosine, D-sphingosine, reference compound]
IC50 (human neutrophils): 2.85 µM
